Consider five compounds from ChEMBL document CHEMBL3739399, “Discovery of Indazole Derivatives as a Novel Class of Bacterial Gyrase B Inhibitors” (ACS Med Chem Lett, 2015).

SMILES strings stand for the structures. Converted amounts (≈) assume the structure as drawn.

In one series the target is DNA gyrase subunit B (Staphylococcus aureus, UniProt P0A0K8). The series can be described thus: Inhibition of Staphylococcus aureus Gyrase B ATPase activity by fluorescence analysis.
The test system of series [1] is Staphylococcus aureus. Put plainly: Antibacterial activity against methicillin-sensitive Staphylococcus aureus 42 for 18 to 20 hrs by broth microdilution method. The series is classed as functional. (Dilution methods test growth across graded concentrations, often in twofold steps.)
Series [2] has as its system Staphylococcus aureus. Put plainly: Antibacterial activity against methicillin-resistant Staphylococcus aureus 1118 for 18 to 20 hrs by broth microdilution method. It is filed as functional.
The subject of series [3] is Staphylococcus aureus. The series can be described thus: Antibacterial activity against methicillin and ciprofloxacin-resistant Staphylococcus aureus 1721 for 18 to 20 hrs by broth microdilution method. It is filed as functional.
The subject of series [4] is Streptococcus pneumoniae. Put plainly: Antibacterial activity against Streptococcus pneumoniae for 18 to 24 hrs by broth microdilution method. The series is classed as functional.
The test system of another series is Enterococcus faecium. Put plainly: Antibacterial activity against Enterococcus faecium for 18 to 20 hrs by broth microdilution method. The series is classed as functional.
Another series has as its system Enterococcus faecalis. Put plainly: Antibacterial activity against Enterococcus faecalis for 18 to 20 hrs by broth microdilution method. The series is classed as functional.
Series [5] has as its system Streptococcus pneumoniae. The series can be described thus: Antibacterial activity against Streptococcus pneumoniae 402 infected in sc dosed mouse assessed as reduction in 2 log CFU in lung compound administered as BID for 1 day measured 24 hrs after last dose. The series is classed as functional.
Series [6] deals with Streptococcus pneumoniae. The series can be described thus: Antibacterial activity against Streptococcus pneumoniae 402 infected in sc dosed mouse assessed as reduction in 3 log CFU in lung compound administered as BID for 1 day measured 24 hrs after last dose. It is filed as functional.
Another series deals with Mus musculus. The series can be described thus: Dose-normalized AUC in mouse at 2 mg/kg, iv by LC-MS/MS analysis. The series is classed as ADME, organism-based. The settings on record: in vivo.
Series [7] can be described thus: Volume of distribution at steady state in mouse at 2 mg/kg, iv by LC-MS/MS analysis. The series is classed as ADME, organism-based. The settings on record: in vivo, read-out: Vdss.
Series [8] in a line: Half-life in mouse at 2 mg/kg, iv by LC-MS/MS analysis. The series is classed as ADME, organism-based. The note with it: in vivo.
The nature of series [9]: Clearance in mouse at 2 mg/kg, iv by LC-MS/MS analysis. The series is classed as ADME, organism-based. The note with it: in vivo.
In series [10] the test system is Staphylococcus aureus. The series can be described thus: Antibacterial activity against Staphylococcus aureus 1118 infected in sc and iv dosed mouse assessed as septicemia compound administered 1 hr post-infection twice for 1 day measured for 7 days. The series is classed as functional. The settings on record: read-out: PD50.
Series [11] is described as follows: Inhibition of Staphylococcus aureus topoisomerase 4 by fluorescence analysis.
The nature of series [12]: Log D of compound at pH 7.4. The note with it: buffer.

DNA gyrase subunit B, sequence (P0A0K8 whole entry): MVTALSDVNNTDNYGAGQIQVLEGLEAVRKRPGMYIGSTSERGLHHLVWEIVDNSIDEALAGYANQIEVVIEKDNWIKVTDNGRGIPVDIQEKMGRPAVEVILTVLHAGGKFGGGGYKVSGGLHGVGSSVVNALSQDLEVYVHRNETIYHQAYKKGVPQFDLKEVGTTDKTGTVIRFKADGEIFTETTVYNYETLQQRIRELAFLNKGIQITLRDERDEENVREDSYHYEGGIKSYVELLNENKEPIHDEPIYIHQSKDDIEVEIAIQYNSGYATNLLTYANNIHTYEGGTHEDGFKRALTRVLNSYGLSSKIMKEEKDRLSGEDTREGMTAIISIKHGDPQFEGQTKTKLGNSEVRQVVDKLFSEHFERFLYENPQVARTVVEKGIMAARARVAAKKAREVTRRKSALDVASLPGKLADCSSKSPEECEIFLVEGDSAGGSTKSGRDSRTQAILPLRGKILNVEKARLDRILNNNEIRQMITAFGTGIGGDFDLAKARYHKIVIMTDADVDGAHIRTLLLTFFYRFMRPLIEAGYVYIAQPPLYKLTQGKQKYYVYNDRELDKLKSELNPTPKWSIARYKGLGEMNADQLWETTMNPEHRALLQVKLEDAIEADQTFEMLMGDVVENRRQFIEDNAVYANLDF

As usually defined, the IC50 is the point on the concentration scale where inhibition reaches its midpoint. The low end stands for greater potency in that assay, the high end for weaker potency in that assay. The MIC is the smallest concentration in the dilution series that meets the test's criterion for growth inhibition. High values mean a less susceptible organism, low ones a more susceptible organism. By half-life is commonly meant the time in which the quantity being followed falls by half. A higher half-life goes with slow decline. By clearance is commonly meant the rate of elimination divided by the concentration. At DNA gyrase subunit B, `CCCc1c(OC)ccc2c(-c3cnc(-c4ccc(C(=O)O)c(F)c4)s3)n[nH]c12` gave a half-inhibitory concentration (IC50) of 15 nM. For the same compound, the minimum inhibitory concentration (MIC) in the series on Staphylococcus aureus [1] came out at 0.06 µg/mL (≈ 0.146 µM); against Staphylococcus aureus [2] it was 0.125 µg/mL (≈ 0.304 µM); against Staphylococcus aureus [3], 0.125 µg/mL (≈ 0.304 µM); against Streptococcus pneumoniae [4], 0.125 µg/mL (≈ 0.304 µM); against Enterococcus faecium, 0.03 µg/mL (≈ 0.0729 µM); against Enterococcus faecalis, 0.03 µg/mL (≈ 0.0729 µM). In addition, the ED in the series with Streptococcus pneumoniae [5] was 60.6 mg/kg; in the series on Streptococcus pneumoniae [6], 103.7 mg/kg. The compound also returned an AUC/dose in the series on Mus musculus of 0.893 µg·h/mL/mg/kg. In addition, in series [7], the Vd is 0.32 L/kg. Further, in series [8], the half-life is 0.31 h. This compound also came in with a clearance in [9] of 19 mL/min/kg.
A word on the logD: it is lipophilicity at a set pH, counting ionised and neutral species. Take `CCCc1cccc2c(-c3cnc(-c4ccc(C(=O)O)nc4)s3)n[nH]c12`: in the series with Staphylococcus aureus [10], the ED50 stood at 1 mg/kg. Moreover, the concentration for half-maximal inhibition (IC50) at DNA gyrase subunit B turned out to be 10 nM; in [11], 56 nM. In addition, the minimal inhibitory concentration (MIC) is 0.06 µg/mL (≈ 0.165 µM) in the series on Staphylococcus aureus [1]; 0.06 µg/mL (≈ 0.165 µM) against Staphylococcus aureus [2]; 0.06 µg/mL (≈ 0.165 µM) in the series with Staphylococcus aureus [3]; 0.06 µg/mL (≈ 0.165 µM) against Streptococcus pneumoniae [4]; 0.06 µg/mL (≈ 0.165 µM) in the series on Enterococcus faecium; 0.03 µg/mL (≈ 0.0823 µM) in the series on Enterococcus faecalis. Moreover, the ED with Streptococcus pneumoniae [5] and in the series with Streptococcus pneumoniae [6] was greater than 25 mg/kg throughout. Also, in the series on Mus musculus, the AUC/dose stood at 0.159 µg·h/mL/mg/kg. Further, the Vd in series [7] amounted to 3.47 L/kg. In series [8], this compound showed a half-life of 2.1 h. This compound also showed a clearance in [9] of 105 mL/min/kg. This compound also showed a pH-dependent lipophilicity (logD) in series [12] of 1.7.
Take `CCCn1c(=O)ccc2c(-c3cnc(-c4ccc(C(=O)O)nc4)s3)n[nH]c21`: the results for the IC50 (on DNA gyrase subunit B; in series [11]) were less than 8 nM and 56 nM, respectively. The MIC against Staphylococcus aureus [1] is greater than 32 µg/mL; in the series with Streptococcus pneumoniae [4] it was 0.06 µg/mL (≈ 0.157 µM). The compound also gave a logD in series [12] of 0.9.
As for `CCCc1cccc2c(-c3cnc(-c4ccc(C(=O)O)c(F)c4)s3)n[nH]c12`, the half-inhibitory concentration (IC50) at DNA gyrase subunit B is less than 8 nM; in series [11] it was 1300 nM. In addition, the minimal inhibitory concentration (MIC) against Staphylococcus aureus [1] was 0.125 µg/mL (≈ 0.328 µM); in the series on Staphylococcus aureus [2], 0.125 µg/mL (≈ 0.328 µM); against Staphylococcus aureus [3], 0.125 µg/mL (≈ 0.328 µM); against Streptococcus pneumoniae [4] it was 0.25 µg/mL (≈ 0.655 µM); in the series on Enterococcus faecium, 0.06 µg/mL (≈ 0.157 µM); against Enterococcus faecalis it was 0.06 µg/mL (≈ 0.157 µM). The results for the ED with Streptococcus pneumoniae [5] and in the series on Streptococcus pneumoniae [6] were 63 mg/kg and 97.6 mg/kg, respectively. The AUC/dose with Mus musculus stood at 0.397 µg·h/mL/mg/kg. Moreover, the Vd in [7] was determined as 1.7 L/kg. In addition, the half-life in series [8] is 2 h. The compound also had a clearance in series [9] of 42 mL/min/kg.
For the compound `CO[C@@H]1[C@@H](OC(N)=O)[C@@H](O)[C@H](Oc2ccc3c(O)c(NC(=O)c4ccc(O)c(CC=C(C)C)c4)c(=O)oc3c2C)OC1(C)C` [NOVOBIOCIN], the ED50 with Staphylococcus aureus [10] came out at 10 mg/kg. Also, the MIC in the series with Staphylococcus aureus [2] is 0.125 µg/mL (≈ 0.204 µM); against Streptococcus pneumoniae [4] it was 2 µg/mL (≈ 3.26 µM). For the same compound, the ED in the series with Streptococcus pneumoniae [5] and in the series with Streptococcus pneumoniae [6] was greater than 100 mg/kg in each case.
